Assay results: PubChem BioAssay (NCI)
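96-well plates; 48 h exposure; 5 concentrations. Endpoints by linear interpolation between flanking doses. Not reached: highest tested concentration assigned. GI50 = concentration required for 50% inhibition of growth. TGI is the concentration that stops growth completely.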

Key:
Test in all cases: inhibition of tumour cell growth, NCI panel, 48 h
[1] = tested on: SF-268 CNS
[2] = tested on: SNB-75 CNS
[3] = tested on: HL-60(TB) leukemia
[4] = tested on: LOX IMVI melanoma
[5] = tested on: SNB-19 CNS
[6] = tested on: UO-31 renal
[7] = tested on: SF-539 CNS
[8] = tested on: BT-549 breast
[9] = tested on: SK-OV-3 ovarian
[10] = tested on: NCI-H522 lung
[11] = tested on: NCI-H460 lung
[12] = tested on: HS 578T breast
[13] = tested on: IGROV1 ovarian
[14] = tested on: CCRF-CEM leukemia
[15] = tested on: U251 CNS
[16] = tested on: UACC-257 melanoma
[17] = tested on: OVCAR-4 ovarian
[18] = tested on: NCI-H226 lung
[19] = tested on: TK-10 renal
[20] = tested on: A498 renal
[21] = tested on: HT29 colon
[22] = tested on: OVCAR-5 ovarian
[23] = tested on: OVCAR-8 ovarian
[24] = tested on: SR leukemia
[25] = tested on: HCT-15 colon
[26] = tested on: T-47D breast
[27] = tested on: UACC-62 melanoma
[28] = tested on: SK-MEL-5 melanoma
[29] = tested on: SK-MEL-28 melanoma
[30] = tested on: PC-3 prostate
[31] = tested on: MDA-MB-231 breast
[32] = tested on: NCI/ADR-RES ovarian
[33] = tested on: 786-0 renal
[34] = tested on: M14 melanoma
[35] = tested on: MALME-3M melanoma
[36] = tested on: CAKI-1 renal
[37] = tested on: COLO 205 colon
[38] = tested on: SF-295 CNS
[39] = tested on: RPMI-8226 leukemia
[40] = tested on: HCT-116 colon
[41] = tested on: MOLT-4 leukemia
[42] = tested on: HCC-2998 colon
[43] = tested on: MDA-MB-468 breast
[44] = tested on: KM12 colon
[45] = tested on: HOP-62 NSCLC
[46] = tested on: ACHN renal
[47] = tested on: OVCAR-3 ovarian
[48] = tested on: HOP-92 NSCLC
[49] = tested on: EKVX NSCLC
[50] = tested on: MDA-MB-435
[51] = tested on: K-562 leukemia
[52] = tested on: DU-145 prostate
[53] = tested on: SW-620 colon
[54] = tested on: MCF7 breast
[55] = tested on: NCI-H23 lung
[56] = tested on: A549 NSCLC
[57] = tested on: SN12C renal
[58] = tested on: SK-MEL-2 melanoma

C[C@H]1[C@H](OC(=O)CCC(=O)N(CCCc2cn(-c3ccc(CN4CCOCC4)cc3)nn2)CCNc2ccnc3cc(Cl)ccc23)O[C@@H]2OC3(C)CC[C@H]4[C@H](C)CC[C@@H]1[C@@]24OO3
GI50 [1]: 2720 nM
TGI [1]: > 11800 nM
GI50 [2]: 11600 nM
TGI [2]: > 11800 nM
GI50 [3]: 359 nM
TGI [3]: 1440 nM
GI50 [4]: 692 nM
TGI [4]: 3540 nM
GI50 [5]: 7350 nM
TGI [5]: > 11800 nM
GI50 [6]: 1980 nM
TGI [6]: > 11800 nM
GI50 [7]: 1590 nM
TGI [7]: 3230 nM
GI50 [8]: 899 nM
TGI [8]: 8420 nM
GI50 [9]: > 11800 nM
TGI [9]: > 11800 nM
GI50 [10]: 505 nM
TGI [10]: > 11800 nM
GI50 [11]: 2200 nM
TGI [11]: 9500 nM
GI50 [12]: 1230 nM
TGI [12]: 8090 nM
GI50 [13]: 3730 nM
TGI [13]: > 11800 nM
GI50 [14]: 1020 nM
TGI [14]: > 11800 nM
GI50 [15]: 1420 nM
TGI [15]: 8270 nM
GI50 [16]: 1190 nM
TGI [16]: 2820 nM
GI50 [17]: 869 nM
TGI [17]: > 11800 nM
GI50 [18]: 2540 nM
TGI [18]: > 11800 nM
GI50 [19]: 11700 nM
TGI [19]: > 11800 nM
GI50 [20]: > 11800 nM
TGI [20]: > 11800 nM
GI50 [21]: 745 nM
TGI [21]: 3880 nM
GI50 [22]: 1310 nM
TGI [22]: > 11800 nM
GI50 [23]: 801 nM
TGI [23]: > 11800 nM
GI50 [24]: 408 nM
TGI [24]: 2470 nM
GI50 [25]: 389 nM
TGI [25]: 4190 nM
GI50 [26]: 460 nM
TGI [26]: > 11800 nM
GI50 [27]: 1150 nM
TGI [27]: > 11800 nM
GI50 [28]: 1190 nM
TGI [28]: 2580 nM
GI50 [29]: 1430 nM
TGI [29]: 3620 nM
GI50 [30]: 234 nM
TGI [30]: > 11800 nM
GI50 [31]: 3050 nM
TGI [31]: > 11800 nM
GI50 [32]: 2640 nM
TGI [32]: > 11800 nM
GI50 [33]: 1530 nM
TGI [33]: 3540 nM
GI50 [34]: 1590 nM
TGI [34]: 3450 nM
GI50 [35]: 1510 nM
TGI [35]: 3040 nM
GI50 [36]: 4560 nM
TGI [36]: > 11800 nM
GI50 [37]: 623 nM
TGI [37]: > 11800 nM
GI50 [38]: 2470 nM
TGI [38]: > 11800 nM
GI50 [39]: 406 nM
TGI [39]: 5620 nM
GI50 [40]: 372 nM
TGI [40]: 2680 nM
GI50 [41]: 317 nM
TGI [41]: 3270 nM
GI50 [42]: 3130 nM
TGI [42]: > 11800 nM
GI50 [43]: 943 nM
TGI [43]: 4920 nM
GI50 [44]: 596 nM
TGI [44]: > 11800 nM
GI50 [45]: 10800 nM
TGI [45]: > 11800 nM
GI50 [46]: 2740 nM
TGI [46]: > 11800 nM
GI50 [47]: 681 nM
TGI [47]: > 11800 nM
GI50 [48]: 506 nM
TGI [48]: 4650 nM
GI50 [49]: 1080 nM
TGI [49]: > 11800 nM
GI50 [50]: 800 nM
TGI [50]: 8910 nM
GI50 [51]: 330 nM
TGI [51]: 2390 nM
GI50 [52]: 6840 nM
TGI [52]: > 11800 nM
GI50 [53]: 533 nM
TGI [53]: > 11800 nM
GI50 [54]: 821 nM
TGI [54]: > 11800 nM
GI50 [55]: 2280 nM
TGI [55]: > 11800 nM
GI50 [56]: 3250 nM
TGI [56]: > 11800 nM
GI50 [57]: 2980 nM
TGI [57]: > 11800 nM
GI50 [58]: 3160 nM
TGI [58]: > 11800 nM
